Measurements: ChEMBL document CHEMBL3046135, “Iodine (III)-mediated synthesis of some 2-aryl/hetarylbenzoxazoles as antibacterial/antifungal agents” (2010)
The source made the active and inactive calls. The calls are words filed in the database; no cut-off is given here.

Experiments:
Assay type in all cases: functional
Escherichia coli [1] = assay: Antibacterial activity against Escherichia coli MTCC 51 at 50 ug/ml after 24 hr by agar well diffusion method
[2] = system: Geobacillus stearothermophilus; assay: Antibacterial activity against Geobacillus stearothermophilus MTCC 8508 at 10 ug/ml after 24 hr by agar well diffusion method
Bacillus subtilis [3] = assay: Antibacterial activity against Bacillus subtilis MTCC 121 at 100 ug/ml after 24 hr by agar well diffusion method
Escherichia coli [4] = assay: Antibacterial activity against Escherichia coli MTCC 51 at 100 ug/ml after 24 hr by agar well diffusion method
Bacillus subtilis [5] = assay: Antibacterial activity against Bacillus subtilis MTCC 121 at 10 ug/ml after 24 hr by agar well diffusion method
Escherichia coli [6] = assay: Antibacterial activity against Escherichia coli MTCC 51 at 10 ug/ml after 24 hr by agar well diffusion method
Pseudomonas putida [7] = assay: Antibacterial activity against Pseudomonas putida at 100 ug/ml after 24 hr by agar well diffusion method
Pseudomonas putida [8] = assay: Antibacterial activity against Pseudomonas putida at 10 ug/ml after 24 hr by agar well diffusion method
Pseudomonas putida [9] = assay: Antibacterial activity against Pseudomonas putida at 50 ug/ml after 24 hr by agar well diffusion method
Bacillus subtilis [10] = assay: Antibacterial activity against Bacillus subtilis MTCC 121 at 50 ug/ml after 24 hr by agar well diffusion method
[11] = system: Geobacillus stearothermophilus; assay: Antibacterial activity against Geobacillus stearothermophilus MTCC 8508 at 100 ug/ml after 24 hr by agar well diffusion method
[12] = system: Geobacillus stearothermophilus; assay: Antibacterial activity against Geobacillus stearothermophilus MTCC 8508 at 50 ug/ml after 24 hr by agar well diffusion method
Aspergillus flavus [13] = assay: Antifungal activity against Aspergillus flavus at 10 ug/ml after 96 hr
Aspergillus niger [14] = assay: Antifungal activity against Aspergillus niger at 10 ug/ml after 96 hr
Aspergillus flavus [15] = assay: Antifungal activity against Aspergillus flavus at 50 ug/ml after 96 hr
Aspergillus niger [16] = assay: Antifungal activity against Aspergillus niger at 100 ug/ml after 96 hr
Aspergillus niger [17] = assay: Antifungal activity against Aspergillus niger at 50 ug/ml after 96 hr
Aspergillus flavus [18] = assay: Antifungal activity against Aspergillus flavus at 100 ug/ml after 96 hr

| Structure (SMILES) | diameter of the inhibition zone (DIZ) (Escherichia coli [1]) [%] | diameter of the inhibition zone (DIZ) [2] | diameter of the inhibition zone (DIZ) (Bacillus subtilis [3]) [%] | diameter of the inhibition zone (DIZ) (Escherichia coli [4]) [%] | diameter of the inhibition zone (DIZ) (Bacillus subtilis [5]) | diameter of the inhibition zone (DIZ) (Escherichia coli [6]) | diameter of the inhibition zone (DIZ) (Pseudomonas putida [7]) [%] | diameter of the inhibition zone (DIZ) (Pseudomonas putida [8]) | diameter of the inhibition zone (DIZ) (Pseudomonas putida [9]) [%] | diameter of the inhibition zone (DIZ) (Bacillus subtilis [10]) [%] | diameter of the inhibition zone (DIZ) [11] [%] | diameter of the inhibition zone (DIZ) [12] [%] | inhibition at 10 µg/mL (Aspergillus flavus [13]) [%] | inhibition at 10 µg/mL (Aspergillus niger [14]) [%] | inhibition at 50 µg/mL (Aspergillus flavus [15]) [%] | inhibition at 100 µg/mL (Aspergillus niger [16]) [%] | inhibition at 50 µg/mL (Aspergillus niger [17]) [%] | inhibition at 100 µg/mL (Aspergillus flavus [18]) [%] |
| --- | --- | --- | --- | --- | --- | --- | --- | --- | --- | --- | --- | --- | --- | --- | --- | --- | --- | --- |
| O=C(N[C@H](CO)[C@H](O)c1ccc([N+](=O)[O-])cc1)C(Cl)Cl [CHLORAMPHENICOL] | 50.4 | 25.33% | 64.2 | 65.4 | 26.33% | 20.33% | 71.24 | 19.33% | 43.4 | 47.2 | 77.2 | 53.2 |  |  |  |  |  |  |
| Cc1ccc(-c2nc3ccccc3o2)s1 | 21.74 | inactive | 17.33 | 34.29 | inactive | 12.45% | 35.45 | 13.47% | 22.33 | 11.33 | 19.66 | 12.66 | 24.3 | 4.89 | 51.6 | 16.6 | 5.23 | 88 |
| c1csc(-c2nc3ccccc3o2)c1 | 26.28 | 10.33% | 31.72 | 36.66 | 12.66% | 11.66% | 33.33 | 9.66% | 24.34 | 21.26 | 31.33 | 20.43 | 21.1 | 41.7 | 63.1 | 82.3 | 64.7 | 88.5 |
| Cc1ccc(-c2nc3cc(Cl)ccc3o2)s1 [5-CHLORO-2-(5-METHYLTHIOPHEN-2-YL)BENZO[D]OXAZOLE] | 17.44 | inactive | 16.66 | 31.74 | inactive | inactive | 32.66 | inactive | 18.33 | 10.33 | 18.47 | 12.66 | 13.7 | 12.4 | 24.9 | 71.9 | 63.9 | 37.5 |
| Cc1ccc(-c2nc3cc(Cl)ccc3o2)cc1 | 32.77 | 17.92% | 42.13 | 43.33 | 17.22% | 18.62% | 73.47 | 14.22% | 54.56 | 31.37 | 43.33 | 30.87 | 20.1 | 4.19 | 43.2 | 21.4 | 7.47 | 66.9 |
| Clc1ccc2oc(-c3cccs3)nc2c1 | 31.77 | 21.33% | 41.66 | 43.33 | 19.66% | 17.74% | 44.77 | 19.66% | 33.66 | 30.53 | 39.66 | 32.66 | 21.1 | 4.89 | 47.4 | 11.8 | 5.88 | 84.2 |
| Clc1ccc2oc(-c3ccccc3)nc2c1 | 33.87 | 10.66% | 36.74 | 45.33 | 10.21% | 19.92% | 76.33 | 15.21% | 57.66 | 26.47 | 36.44 | 27.21 | 29 | 8.93 | 51.4 | 21.9 | 5.88 | 86.2 |
| C[C@@H]1C[C@@H]([C@H](O)CC2CC(=O)NC(=O)C2)C(=O)[C@@H](C)C1 [CYCLOHEXIMIDE] |  |  |  |  |  |  |  |  |  |  |  |  | 15.8 | 11.8 | 63.1 | 35.3 | 23.5 | 78.9 |
| O=[N+]([O-])c1ccc(-c2nc3cc(Cl)ccc3o2)cc1 | 17.14 | inactive | 17.22 | 30.24 | inactive | inactive | 31.16 | inactive | 18.13 | 10.13 | 19.37 | 12.26 | 19.9 | 43.2 | 49.6 | 73.6 | 66.9 | 78.5 |
| Clc1ccc2oc(-c3cccnc3)nc2c1 | 27.33 | 11.33% | 33.33 | 36.74 | 13.33% | 12.66% | 35.33 | 9.66% | 25.33 | 22.16 | 32.33 | 21.43 | 15.8 | 17.6 | 26.3 | 76.5 | 41.7 | 78.9 |
| COc1cc(-c2nc3cc(Cl)ccc3o2)ccc1O [4-(5-CHLOROBENZO[D]OXAZOL-2-YL)-2-METHOXYPHENOL] | 21.43 | 10.66% | 31.33 | 31.33 | 9.33% | 9.33% | 37.33 | 12.66% | 26.33 | 20.43 | 31.74 | 21.33 | 29 | 8.93 | 51.4 | 21.9 | 5.88 | 86.2 |
| Cc1ccsc1-c1nc2cc(Cl)ccc2o1 [5-CHLORO-2-(3-METHYLTHIOPHEN-2-YL)BENZO[D]OXAZOLE] | 24.56 | 12.66% | 29.33 | 33.17 | 10.34% | 10.33% | 35.06 | 12.12% | 25.67 | 21.67 | 31.84 | 23.44 | 21.1 | 17.5 | 36.8 | 76.5 | 47 | 84.2 |
